# From ChEMBL document CHEMBL1201862, “PubChem BioAssay data set” (2004)
#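 Interpolation was linear, between the two tested concentrations surrounding the appropriate level; five concentrations were tested over 48 hours in 96-well plates. Here, GI50 denotes the concentration required for 50% inhibition of growth.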 The source made the active and inactive calls. Rule as the data show it: active = GI50 up to about 1.1 µM and inactive = higher.
# Columns and labels:
# Test in all cases: NCI-60 cell line screen, 48 h
# [1] = tested on: ACHN
# [2] = tested on: MDA-MB-435
# [3] = tested on: HOP-92
# [4] = tested on: SK-MEL-2
# [5] = tested on: BT-549
# [6] = tested on: PC-3
# [7] = tested on: U-251
# [8] = tested on: NCI-H460
# [9] = tested on: NCI-H522
# [10] = tested on: HCT-15
# [11] = tested on: LOX IMVI
# [12] = tested on: HOP-62
# [13] = tested on: COLO 205
# [14] = tested on: SK-MEL-28
# [15] = tested on: OVCAR-8
# [16] = tested on: T47D
# [17] = tested on: M14
# [18] = tested on: SK-OV-3
# [19] = tested on: KM12
Structure (SMILES),GI50 [1],GI50 [2],GI50 [3],GI50 [4],GI50 [5],GI50 [6],GI50 [7],GI50 [8],GI50 [9],GI50 [10],GI50 [11],GI50 [12],GI50 [13],GI50 [14],GI50 [15],GI50 [16],GI50 [17],GI50 [18],GI50 [19]
C[C@@H](C[C@H]1OC(C)(C)O[C@@H]1C(C)(C)O)[C@H]1CC=C2[C@]3(C)[C@H](O)C[C@H]4C(C)(C)[C@H](O)CC[C@]4(C)[C@H]3CC[C@]21C,8.15 µM (inactive),8.28 µM (inactive),6.21 µM (inactive),11.5 µM (inactive),11.4 µM (inactive),5.05 µM (inactive),6.84 µM (inactive),6.44 µM (inactive),8.24 µM (inactive),6.03 µM,8.13 µM (inactive),12.8 µM (inactive),5.26 µM (inactive),9.95 µM (inactive),11.6 µM (inactive),7.73 µM (inactive),9.29 µM (inactive),12.5 µM (inactive),6.21 µM (inactive)
O=C(NNS(=O)(=O)c1ccccc1)c1cccnc1,> 100 µM (inactive),> 100 µM (inactive),> 100 µM (inactive),> 100 µM (inactive),> 100 µM (inactive),> 100 µM (inactive),> 100 µM (inactive),> 100 µM (inactive),> 100 µM (inactive),> 100 µM,> 100 µM (inactive),> 100 µM (inactive),> 100 µM (inactive),> 100 µM (inactive),> 100 µM (inactive),> 100 µM (inactive),> 100 µM (inactive),> 100 µM (inactive),> 100 µM (inactive)
COc1cc(C2c3cc4c(cc3OC(NNC(N)=O)C2C)OCO4)cc(OC)c1OC (stereo not given),0.557 µM (active),0.0586 µM (active),0.0675 µM (active),1.26 µM (inactive),2.03 µM (inactive),0.183 µM (active),0.126 µM (active),0.179 µM (active),0.104 µM (active),0.274 µM,0.145 µM (active),0.118 µM (active),0.0982 µM (active),1.12 µM (inactive),0.356 µM (active),> 66.4 µM (inactive),0.115 µM (active),1.36 µM (inactive),0.107 µM (active)
COc1ccc(C(=O)N2CCN(c3ccc4c(c3)OCC(=O)N4)CC2)cc1OC,> 100 µM (inactive),> 100 µM (inactive),> 100 µM (inactive),> 100 µM (inactive),> 100 µM (inactive),> 100 µM (inactive),> 100 µM (inactive),> 100 µM (inactive),71.1 µM (inactive),> 100 µM,> 100 µM (inactive),> 100 µM (inactive),> 100 µM (inactive),> 100 µM (inactive),> 100 µM (inactive),54.3 µM (inactive),> 100 µM (inactive),> 100 µM (inactive),> 100 µM (inactive)
CCCCCCCCCCCC[C@@H](O)[C@H]1CC[C@H]([C@H](O)CC[C@H](O)[C@@H]2CC[C@@H](CCCCCCCC3=C[C@H](C)OC3=O)O2)O1,> 50 µM (inactive),> 50 µM (inactive),> 50 µM (inactive),> 50 µM (inactive),> 50 µM (inactive),> 50 µM (inactive),> 50 µM (inactive),2.54 µM (inactive),46.8 µM (inactive),> 50 µM,> 27.2 µM (inactive),> 50 µM (inactive),> 50 µM (inactive),> 50 µM (inactive),> 50 µM (inactive),> 50 µM (inactive),> 50 µM (inactive),> 50 µM (inactive),> 50 µM (inactive)
Cc1cc(-c2nc3ccccc3s2)ccc1NC(=O)[C@@H](N)CCCCN,14.7 µM (inactive),5.24 µM (inactive),16.1 µM (inactive),13.4 µM (inactive),10.1 µM (inactive),14.3 µM (inactive),4.59 µM (inactive),2.22 µM (inactive),6.75 µM (inactive),9.27 µM,2.03 µM (inactive),11.8 µM (inactive),12.4 µM (inactive),15.3 µM (inactive),6.78 µM (inactive),< 0.0247 µM (active),2.47 µM (inactive),13.5 µM (inactive),2.82 µM (inactive)
Cc1ccc2nc3ccccc3c(C3C4C(=O)N(c5ccc(F)cc5)C(=O)C4ON3C(C(N)=O)c3ccccc3)c2c1 (stereo not given),49.3 µM (inactive),26.2 µM (inactive),37.1 µM (inactive),33.3 µM (inactive),> 100 µM (inactive),55.2 µM (inactive),29.4 µM (inactive),34.8 µM (inactive),17.5 µM (inactive),27.2 µM,24.5 µM (inactive),71.8 µM (inactive),17.5 µM (inactive),59 µM (inactive),46 µM (inactive),84.1 µM (inactive),57 µM (inactive),33.2 µM (inactive),32.4 µM (inactive)
CC1=C(C)C2(C#N)C(=O)N3C(=NC(c4ccco4)NC3c3ccco3)C2(C#N)C(c2ccco2)N1 (stereo not given),> 100 µM (inactive),> 100 µM (inactive),> 100 µM (inactive),> 100 µM (inactive),> 100 µM (inactive),> 100 µM (inactive),> 100 µM (inactive),> 100 µM (inactive),> 100 µM (inactive),> 100 µM,> 100 µM (inactive),> 100 µM (inactive),> 100 µM (inactive),> 100 µM (inactive),> 100 µM (inactive),> 100 µM (inactive),> 100 µM (inactive),> 100 µM (inactive),> 100 µM (inactive)
Clc1ccc2c(c1)CC1C[N+]3=C(CCCC3)C1=C2 (stereo not given),> 100 µM (inactive),54.2 µM (inactive),63.5 µM (inactive),> 100 µM (inactive),55.5 µM (inactive),60.5 µM (inactive),34 µM (inactive),40.1 µM (inactive),47.4 µM (inactive),> 100 µM,> 100 µM (inactive),89.9 µM (inactive),58.1 µM (inactive),> 100 µM (inactive),60.7 µM (inactive),51.3 µM (inactive),53.8 µM (inactive),> 100 µM (inactive),57.8 µM (inactive)
C=C[C@H]1CN2CCc3c([nH]c4c([C@@H]5CCCN5C)c(O)ccc34)[C@@H]2C[C@@H]1C[C@H]1c2[nH]c3ccccc3c2CCN1C,1.65 µM (inactive),1.51 µM (inactive),1.4 µM (inactive),1.85 µM (inactive),1.47 µM (inactive),1.47 µM (inactive),1.38 µM (inactive),1.39 µM (inactive),1.85 µM (inactive),1.28 µM,1.39 µM (inactive),1.35 µM (inactive),1.61 µM (inactive),1.79 µM (inactive),1.4 µM (inactive),1.95 µM (inactive),1.09 µM (active),1.7 µM (inactive),1.47 µM (inactive)
